What was measured:
Bean (BN) [1] = experiment: Pre-emergence herbicide test; format: in vivo, Phaseolus vulgaris var. Black Valentine; details: Phaseolus vulgaris, 336 h, two weeks after treatment
How it was run: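 Visual injury/control ratings were taken two weeks post-spray on sub-irrigated Phaseolus vulgaris var. Black Valentine. Pots were sown a day before treatment. Pre-emergence spray delivered 8 lbs actual compound per acre (or 4 lbs/acre) at 38 gallons per acre.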

Amaranth pigweed (PW) [2] = experiment: Pre-emergence herbicide test; format: in vivo, Amaranthus retroflexus; details: 336 h, two weeks after treatment
How it was run: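 Visual injury or control ratings were made at two weeks on pre-emergence pots, sub-irrigated in the greenhouse. Seeds were sown a day before a hood spray delivering 8 lbs/acre (or 4 lbs/acre) of compound in 38 gallons per acre.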

Johnson grass (JG) = experiment: Pre-emergence herbicide test; format: in vivo, Sorgum helepense; details: Sorghum halepense, 336 h, two weeks after treatment
How it was run: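 Visual injury or control rating two weeks post-treatment, after pre-emergence spray of 8 or 4 lbs active per acre (38 gal/acre) onto pots sown the previous day. Greenhouse watering by sub-irrigation only.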

Corn (CN) [3] = experiment: Post-emergence herbicide test; format: in vivo; details: Zea mays, 336 h, two weeks after treatment
How it was run: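 Greenhouse seedlings grown in potting soil and sprayed post-emergence at 8 lbs compound/acre (formulations also made for 4 lbs/acre) in 38 gallons/acre spray volume. Watering by sub-irrigation only. Injury or control rated visually two weeks after treatment.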

Sinapis [4] = experiment: Field test, post-emergence application; format: in vivo; design: unit not given here; details: 2 lbs/acre, reading 0 = no effect, 10 = completely killed, 8 and 14 days
Procedure: (§1) Tests have also been made for the compound of Example 1 with Sinapis, oats and wheat. This test was conducted according to the following procedure.
(§2) Forty rows, 70 feet long, were planted to weeds and crops. Two rows were planted on each bed. Beds were 40 inches apart from center to center. The two rows were about 10 inches apart on each bed. Beds were rolled prior to planting to provide a uniform smooth surface. Soil temperature at a depth of 11/2 inches was 66° F. at time of planting. Post-emergence applications were made by spraying bands across rows 10 feet wide using a self-propelled plot sprayer with a 10 foot boom equipped with Teejet 8001 flat spray nozzle tips and operated at 40 psi. A total of 84 fluid ounces of spray material was applied to three replicates. Each replicate plot was 10 feet wide by 66.67 feet long.
(§3) Eight days after the application, readings were made on the effect of the chemicals on each crop and weed in the post-emergence treatment. A reading of 0 was recorded if no effect was observed; 10 recorded if the plants were completely killed, and readings of 1 to 9 for intermediate kills. A second reading of the post-emergence treatments was made 14 days after the application.

[5] = system: Yellow foxtail grass (YF); experiment: Post-emergence herbicide test; format: in vivo, Setaria glauca; details: Setaria, 336 h, two weeks after treatment
How it was run: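 Visual rating of injury/control made 2 weeks post-spray. Seedlings at a uniform growth stage in soil-filled pots received a hood spray of 8 lbs/acre active compound, 38 gallons/acre volume, with a 4 lbs/acre rate also formulated. Watering was by sub-irrigation only.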

Crabgrass (CG) = experiment: Post-emergence herbicide test; format: in vivo, Digitaria sanquinalis; details: Digitaria sanguinalis, post-emergence, 336 h, two weeks after treatment
How it was run: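 Crabgrass (Digitaria sanquinalis) was surface seeded individually in 3' plastic pots of potting soil, covered with screened soil, and watered by sub-irrigation in greenhouse trays. Planting was staggered so seedlings reached the target stage together. Post-emergence sprays were applied in a hood with a removable belt and fixed nozzle, and control was visually rated two weeks after treatment.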

[6] = system: Yellow foxtail grass (YF); experiment: Pre-emergence herbicide test; format: in vivo, Setaria glauca; details: Setaria, 336 h, two weeks after treatment
How it was run: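 Visual rating of injury/control made two weeks after a pre-emergence spray of 8 or 4 lbs active per acre (38 gal/acre) onto pots seeded the previous day. Greenhouse watering by sub-irrigation only.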

Sinapis [7] = experiment: Field test, pre-emergence application; format: in vivo; details: reading 0 = no effect, 10 = completely killed, 14 and 20 days
Procedure: as §1
as §2, with “long. […]” for “long.”
as §3
Readings were made 14 and 20 days after the pre-emergence application.

Cotton (CT) = experiment: Pre-emergence herbicide test; format: in vivo, Gossypium hirsutum var. DPL smooth leaf; details: Gossypium hirsutum, 336 h, two weeks after treatment
How it was run: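 Visual injury/control ratings were taken at two weeks post-spray. Pots seeded a day earlier received compound pre-emergence at 8 lbs/acre, or 4 lbs/acre, in a 38 gallon/acre spray volume, and were then held in the greenhouse, watered only from below.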

Barnyard grass (BG) [8] = experiment: Pre-emergence herbicide test; format: in vivo; details: Echinochloa crus-galli, 336 h, two weeks after treatment
How it was run: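 Greenhouse pre-emergence spray test: pots seeded one day before treatment received compound at rates of 8 or 4 lb/acre (38 gal/acre). Visual injury/control scores for Echinochloa crus-galli taken at two weeks, with watering by sub-irrigation only.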

Amaranth pigweed (PW) [9] = experiment: Post-emergence herbicide test; format: in vivo, Amaranthus retroflexus; details: 336 h, two weeks after treatment
How it was run: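 Visual injury or control ratings were made two weeks after spraying, with greenhouse watering by sub-irrigation only. Treatment was post-emergence, when pigweed seedlings had 1 or 2 true leaves, at 8 lbs active compound per acre (4 lbs/acre formulations also made) in a 38 gallons-per-acre spray volume.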

Bean (BN) [10] = experiment: Post-emergence herbicide test; format: in vivo, Phaseolus vulgaris var. Black Valentine; details: Phaseolus vulgaris, post-emergence, 336 h, two weeks after treatment
How it was run: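 Bean seedlings (Phaseolus vulgaris var. Black Valentine) were grown in potting soil in 3' pots until the primary leaves expanded. They were then sprayed under a hood with a removable belt and fixed nozzle, using 50 ml formulations. Afterward they were returned to the greenhouse and watered only by sub-irrigation. Percent control was judged visually two weeks after treatment.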

Barnyard grass (BG) [11] = experiment: Post-emergence herbicide test; format: in vivo; details: Echinochloa crus-galli, 336 h, two weeks after treatment
How it was run: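 Greenhouse pot-grown barnyard grass seedlings sprayed post-emergence at 8 lbs active compound per acre (some at 4 lbs/acre) in 38 gallons per acre, then sub-irrigated. Injury or control rated visually two weeks after treatment.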

Corn (CN) [12] = experiment: Pre-emergence herbicide test; format: in vivo; details: Zea mays, 336 h, two weeks after treatment
How it was run: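 Visual injury/control ratings were made 2 weeks post-spray on corn pots seeded (4 seeds, seed-diameter depth) the day before treatment. Application was a belt-hood spray of 38 gal/acre delivering 8 lbs active per acre, with a 4 lbs/acre rate also formulated. Watering was by sub-irrigation throughout.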

Work on `CNC(=O)Nc1nnc(C(F)(F)F)s1` [Example 1, 1-Methyl-3-[5-Trifluoromethyl-2-(1,3,4-Thiadiazolyl)] Urea] yielded a pest or weed control at 4483.4 g/ha (Bean (BN) [1]; 4 lb/acre) of 90%, a pest or weed control at 8966.8 g/ha (Bean (BN) [1]; 8 lb/acre) of 90% and a pest or weed control at 4483.4 g/ha (Amaranth pigweed (PW) [2]; 4 lb/acre) of 90%. For the same compound, the pest or weed control at 8966.8 g/ha (Amaranth pigweed (PW) [2]; 8 lb/acre) was 90%, the pest or weed control at 4483.4 g/ha (Johnson grass (JG); 4 lb/acre) was 80% and the pest or weed control at 8966.8 g/ha (Johnson grass (JG); 8 lb/acre) was 70%. The pest or weed control (Corn (CN) [3]; 2 lb/acre) was 70%, the pest or weed control at 4483.4 g/ha (Corn (CN) [3]; 4 lb/acre) was 100% and the pest or weed control at 8966.8 g/ha (Corn (CN) [3]; 8 lb/acre) was 100%. For the same compound, the “Post-emergence activity, % control, Sinapis” value (Sinapis [4]) was 10, the pest or weed control ([5]; 2 lb/acre) was 50% and the pest or weed control at 4483.4 g/ha ([5]; 4 lb/acre) was 90%. For the same compound, the pest or weed control at 8966.8 g/ha ([5]; 8 lb/acre) was 100%, the pest or weed control (Crabgrass (CG); 2 lb/acre) was 60% and the pest or weed control at 4483.4 g/ha (Crabgrass (CG); 4 lb/acre) was 90%. The pest or weed control at 8966.8 g/ha (Crabgrass (CG); 8 lb/acre) was 100%, the pest or weed control at 4483.4 g/ha ([6]; 4 lb/acre) was 80% and the pest or weed control at 8966.8 g/ha ([6]; 8 lb/acre) was 90%. For the same compound, the “Pre-emergency activity, % control, Sinapis” value (Sinapis [7]; 1 lb/acre) was 10 rating score (0–10 scale), the “Pre-emergency activity, % control, Sinapis” value (Sinapis [7]; 2 lbs/acre) was 10 rating score (0–10 scale) and the pest or weed control at 4483.4 g/ha (Cotton (CT); 4 lb/acre) was 80%. For the same compound, the pest or weed control at 8966.8 g/ha (Cotton (CT); 8 lb/acre) was 100%, the pest or weed control at 4483.4 g/ha (Barnyard grass (BG) [8]; 4 lb/acre) was 90% and the pest or weed control at 8966.8 g/ha (Barnyard grass (BG) [8]; 8 lb/acre) was 90%. The pest or weed control at 2241.7 g/ha (Amaranth pigweed (PW) [9]; 2 lb/acre) was 100%, the pest or weed control at 4483.4 g/ha (Amaranth pigweed (PW) [9]; 4 lb/acre) was 100% and the pest or weed control at 8966.8 g/ha (Amaranth pigweed (PW) [9]; 8 lb/acre) was 100%. It also gave a pest or weed control at 2241.7 g/ha (Bean (BN) [10]; 2 lb/acre) of 100%, a pest or weed control at 4483.4 g/ha (Bean (BN) [10]; 4 lb/acre) of 100% and a pest or weed control at 8966.8 g/ha (Bean (BN) [10]; 8 lb/acre) of 100%. The pest or weed control at 2241.7 g/ha (Barnyard grass (BG) [11]; 2 lb/acre) was 70%, the pest or weed control at 4483.4 g/ha (Barnyard grass (BG) [11]; 4 lb/acre) was 100% and the pest or weed control at 8966.8 g/ha (Barnyard grass (BG) [11]; 8 lb/acre) was 100%. It also gave a pest or weed control at 4483.4 g/ha (Corn (CN) [12]; 4 lb/acre) of 30% and a pest or weed control at 8966.8 g/ha (Corn (CN) [12]; 8 lb/acre) of 90%.
